Tests used:
[1] = target: Cannabinoid receptor 2 (Homo sapiens, UniProt P34972); assay: Displacement of [3H]CP-55-940 from human recombinant CB2 receptor in COS cells; type: cell-based
[2] = target: Cannabinoid receptor 1 (Homo sapiens, UniProt P21554); assay: Displacement of [3H]CP-55-940 from human recombinant CB1 receptor in COS cells; type: cell-based
Chain of Cannabinoid receptor 1 (P21554 whole entry): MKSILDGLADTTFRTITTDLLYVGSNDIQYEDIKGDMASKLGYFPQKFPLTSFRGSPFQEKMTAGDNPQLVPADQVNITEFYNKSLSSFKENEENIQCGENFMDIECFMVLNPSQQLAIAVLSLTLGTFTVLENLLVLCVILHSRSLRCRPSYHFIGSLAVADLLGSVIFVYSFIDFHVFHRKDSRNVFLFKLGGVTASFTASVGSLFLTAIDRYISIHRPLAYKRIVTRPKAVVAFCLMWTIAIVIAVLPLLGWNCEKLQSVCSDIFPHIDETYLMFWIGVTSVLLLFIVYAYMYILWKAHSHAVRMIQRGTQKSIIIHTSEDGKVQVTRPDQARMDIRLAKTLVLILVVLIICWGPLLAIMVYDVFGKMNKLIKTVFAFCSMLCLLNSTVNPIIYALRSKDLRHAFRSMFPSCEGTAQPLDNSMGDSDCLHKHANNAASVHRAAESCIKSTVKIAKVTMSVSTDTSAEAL

Chain of Cannabinoid receptor 2 (P34972 whole entry): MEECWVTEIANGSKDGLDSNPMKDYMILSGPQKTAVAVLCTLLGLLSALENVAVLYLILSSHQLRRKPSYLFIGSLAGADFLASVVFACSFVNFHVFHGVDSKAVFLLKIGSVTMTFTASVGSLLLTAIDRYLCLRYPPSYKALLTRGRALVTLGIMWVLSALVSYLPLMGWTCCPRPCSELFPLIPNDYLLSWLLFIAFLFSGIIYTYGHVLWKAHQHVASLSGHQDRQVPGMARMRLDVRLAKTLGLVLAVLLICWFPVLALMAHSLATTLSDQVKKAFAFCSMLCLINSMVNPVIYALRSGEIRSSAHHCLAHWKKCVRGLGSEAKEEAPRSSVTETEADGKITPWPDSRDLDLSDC

Question: With `C[C@H](CO)NC(=O)CCC/C=C\C/C=C\C/C=C\C/C=C\CCOC(=O)c1cc(I)ccc1N=[N+]=[N-]` as the molecule, how does the Ki [1] read?
Answer: The Ki was 220 nM.

Question: What about the Ki [2] of the same molecule?
Answer: Its Ki is 570 nM.

Source: ChEMBL document CHEMBL1138953 (Bioorg Med Chem Lett, 2006)
